The text below walks through data of ChEMBL document CHEMBL1129522, “Inhibitors of acyl-CoA:cholesterol O-acyltransferase. 17. Structure-activity relationships of several series of compounds derived from N-chlorosulfonyl isocyanate” (J Med Chem, 1996).

The term IC50 denotes the concentration that inhibits the measured activity by half. A higher IC50 goes with a need for much substance.

Each structure is given as a SMILES string.

Assay [1] has as its target T1, Sterol O-acyltransferase 1 (Rattus norvegicus, UniProt O70536).
T1 sequence (O70536 whole entry): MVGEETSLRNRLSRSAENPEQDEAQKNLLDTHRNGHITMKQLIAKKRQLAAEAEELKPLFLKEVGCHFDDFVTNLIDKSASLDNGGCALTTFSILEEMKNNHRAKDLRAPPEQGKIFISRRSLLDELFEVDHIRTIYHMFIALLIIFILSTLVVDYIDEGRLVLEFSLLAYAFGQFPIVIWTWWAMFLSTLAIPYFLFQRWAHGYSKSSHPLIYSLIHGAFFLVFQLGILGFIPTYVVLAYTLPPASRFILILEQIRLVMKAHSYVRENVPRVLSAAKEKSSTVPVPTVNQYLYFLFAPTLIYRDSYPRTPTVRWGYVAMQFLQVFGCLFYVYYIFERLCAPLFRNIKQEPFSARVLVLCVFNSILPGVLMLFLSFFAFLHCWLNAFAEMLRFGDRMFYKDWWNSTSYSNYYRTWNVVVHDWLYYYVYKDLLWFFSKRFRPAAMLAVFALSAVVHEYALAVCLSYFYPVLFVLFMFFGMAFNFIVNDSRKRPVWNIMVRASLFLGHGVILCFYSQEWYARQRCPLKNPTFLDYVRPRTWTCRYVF
Put plainly: In vitro inhibitory activity against acyl coenzyme A:cholesterol acyltransferase 1 in microsomes of rat liver.

The subject of another assay is Rattus norvegicus. The assay can be described thus: Acute in vivo activity measured by total plasma cholesterol concentration levels (TC) at 30 mg/kg dose. It is filed as functional.

In the case of `CC(C)c1cc([N+](=O)[O-])cc(C(C)C)c1OC(=O)NS(=O)(=O)Oc1c(C(C)C)cccc1C(C)C`, in assay [1], the IC50 was > 50 µM. In addition, the “Delta TC” value in the assay on Rattus norvegicus was 18%.

For `CCc1cccc(CC)c1COC(=O)NS(=O)(=O)Oc1c(C(C)C)cccc1C(C)C`, the IC50 in assay [1] amounted to 20 µM. Also, the “Delta TC” value in the assay with Rattus norvegicus is -2%.

Regarding `CC(C)c1cccc(C(C)C)c1OC(=O)NS(=O)(=O)Oc1ccccc1`, the half-inhibitory concentration (IC50) in assay [1] is > 50 µM. Also, the “Delta TC” value with Rattus norvegicus is on record as -26%.

In assay [1], `CC(C)c1cccc(C(C)C)c1OS(=O)(=O)NC(=O)Oc1c(C(C)(C)C)cc(CN(C)C)cc1C(C)(C)C` displayed an IC50 of 22 µM. Besides, in the assay on Rattus norvegicus, the “Delta TC” value amounted to 2%.

`CC(C)c1cccc(C(C)C)c1OS(=O)(=O)NC(=O)Oc1ccc(Cl)cc1` came in with an IC50 in assay [1] of 97 µM. In the assay with Rattus norvegicus, the “Delta TC” value is recorded as -8%.

As for `Cc1cc(C)c(C)c(OC(=O)NS(=O)(=O)Oc2c(C(C)C)cccc2C(C)C)c1C`, the IC50 in assay [1] was > 50 µM. In addition, the “Delta TC” value in the assay on Rattus norvegicus is listed as -17%.

As to `CC(=O)c1cc(C(C)C)c(OC(=O)NS(=O)(=O)Oc2c(C(C)C)cccc2C(C)C)c(C(C)C)c1`, the IC50 in assay [1] was 41.8 µM. Also, the “Delta TC” value in the assay on Rattus norvegicus is on record as -16%.

With `CC(C)c1cccc(C(C)C)c1OS(=O)(=O)NC(=O)Sc1c(C(C)C)cccc1C(C)C`, the IC50 in assay [1] worked out at 8.7 µM. In addition, in the assay on Rattus norvegicus, the “Delta TC” value was -17%.

As to `CCOC(=O)[N-]S(=O)(=O)Oc1c(C(C)C)cccc1C(C)C.[Na+]`, the IC50 in assay [1] was > 50 µM. The “Delta TC” value with Rattus norvegicus is on record as 17%.

The molecule `CC(C)c1cc(Cl)cc(C(C)C)c1OC(=O)NS(=O)(=O)Oc1c(C(C)C)cccc1C(C)C` registered an IC50 in assay [1] of 42 µM. Besides, the “Delta TC” value in the assay with Rattus norvegicus is on record as 2%.

Regarding `COc1cccc(OC)c1OC(=O)NS(=O)(=O)Oc1c(C(C)C)cccc1C(C)C`, the IC50 in assay [1] is > 50 µM. For the same molecule, in the assay on Rattus norvegicus, the “Delta TC” value is given as -61%.

Consider `CC(C)c1cccc(C(C)C)c1OS(=O)(=O)NC(=O)OC1C2CC3CC(C2)CC1C3` (stereo not given), for which the IC50 in assay [1] is 23 µM. Besides, the “Delta TC” value in the assay on Rattus norvegicus is on record as -36%.

`CCCCCCC(C)OC(=O)NS(=O)(=O)Oc1c(C(C)C)cccc1C(C)C` (stereo not given) had an IC50 in assay [1] of 26 µM. In the assay with Rattus norvegicus, the “Delta TC” value is given as -32%.

In assay [1], `CC(C)c1cc(Br)cc(C(C)C)c1OC(=O)NS(=O)(=O)Oc1c(C(C)C)cccc1C(C)C` gave an IC50 of 31 µM. Besides, the “Delta TC” value in the assay with Rattus norvegicus is listed as -29%.

Turning to `CCCCCCCCCCCCN(CCCCCCCCCCCC)S(=O)(=O)NC(=O)Nc1c(C(C)C)cccc1C(C)C`, half-maximal inhibition in assay [1] (IC50) required 69 µM. Also, the “Delta TC” value with Rattus norvegicus is recorded as -5%.

`CC(C)c1cccc(C(C)C)c1OC(=O)NS(=O)(=O)Oc1c(F)cccc1F`: the IC50 in assay [1] was found to be 38 µM. Moreover, the “Delta TC” value in the assay with Rattus norvegicus is reported as 9%.

In turn, `COc1cccc(OC)c1OC(=O)[N-]S(=O)(=O)Oc1c(C(C)C)cccc1C(C)C.[Na+]` came in with a concentration for half-maximal inhibition (IC50) in assay [1] of 48 µM. In addition, in the assay on Rattus norvegicus, the “Delta TC” value is given as -49%.

Take `CC(C)c1cccc(C(C)C)c1OC(=O)NS(=O)(=O)Oc1ccc(F)cc1F`: the IC50 in assay [1] was > 50 µM. Besides, in the assay with Rattus norvegicus, the “Delta TC” value is listed as -11%.

As to `CC(C)c1ccc(OC(=O)NS(=O)(=O)Oc2c(C(C)C)cccc2C(C)C)c(C(C)C)c1`, in assay [1], the IC50 is > 50 µM. Also, the “Delta TC” value in the assay on Rattus norvegicus is 6%.

As for `CCCCCCCCCCCCOS(=O)(=O)[N-]C(=O)Nc1c(C(C)C)cccc1C(C)C.[Na+]`, the IC50 in assay [1] is 5 µM. Further, the “Delta TC” value in the assay with Rattus norvegicus is -60%.

In the case of `COc1cc(OC)c(OC(=O)NS(=O)(=O)Oc2c(C(C)C)cccc2C(C)C)c(OC)c1`, the IC50 in assay [1] is > 25 µM. In the assay on Rattus norvegicus, the “Delta TC” value is listed as -5%.

Turning to `CC(C)c1cccc(C(C)C)c1OS(=O)(=O)NC(=O)Oc1ccc(F)cc1F`, in assay [1], the IC50 was > 50 µM. Moreover, the “Delta TC” value in the assay with Rattus norvegicus is -5%.

As to `CC(C)c1cccc(C(C)C)c1OS(=O)(=O)NC(=O)Oc1cccnc1`, in assay [1], the IC50 was > 50 µM. Besides, the “Delta TC” value with Rattus norvegicus is on record as -2%.

In turn, `Cc1cccc(C(C)(C)C)c1OC(=O)NS(=O)(=O)Oc1c(C(C)C)cccc1C(C)C` came in with an IC50 in assay [1] of 49 µM. Moreover, in the assay on Rattus norvegicus, the “Delta TC” value is -15%.

`COc1cc(C(C)(C)C)c(OC(=O)NS(=O)(=O)Oc2c(C(C)C)cccc2C(C)C)c(C(C)(C)C)c1`: the IC50 in assay [1] worked out at 4.8 µM. The “Delta TC” value in the assay with Rattus norvegicus was -72%.
